# Where “and” joins values, the source holds several entries; their conditions need not be identical. Identical values can stand only once. Like-named read-outs stand apart in the source and are kept apart here.
# Key:
# [1] = test system: HIV-1 virus strains (e.g. YU2); details: cited from earlier work; for percentage compared to wild-type CCR5, 89.6 / percentage compared to wild-type CCR5, ADA / percentage compared to wild-type CCR5, DH123 / percentage compared to wild-type CCR5, JF-RL / percentage compared to wild-type CCR5, YU2: CCR5 alanine mutant, work of others; for percentage compared to wild-type CCR5, 89.6: HIV-1 strain 89.6; for percentage compared to wild-type CCR5, ADA: HIV-1 strain ADA; for percentage compared to wild-type CCR5, DH123: HIV-1 strain DH123; for percentage compared to wild-type CCR5, JF-RL: HIV-1 strain JF-RL; for percentage compared to wild-type CCR5, YU2: HIV-1 strain YU2
# HIV-1LAI envelope gp120 = HIV-1LAI envelope gp120 (Human immunodeficiency virus type 1 group M subtype B, UniProt P03377); assay type: binding
# [2] = Panel A, 21-mers of CD4, empty control 515 and 617
# [3] = Panel D, 9-mers and 12-mers of CD4, empty control […]
# [4] = STRL33 18-mer scan, background subtracted, first of two count columns
# [5] = STRL33 18-mer scan, background subtracted, second of two count columns
# [6] = Panel E, 9-mers and 12-mers of CD4, empty control 571
# [7] = Panel B, 15-mers and 18-mers of CD4, empty control 575
# [8] = Panel C, 15-mers and 18-mers of CD4, empty control 556
# [9] = CXCR4 18-mer scan, background subtracted, empty control 0
# [10] = CXCR4 18-mer scan, empty control 412
# [11] = Panel F, sequential alanine replacements of CD4 polypeptides, duplicate series, empty control 569
substance,measurement,setting,value
MDYQVSSPIYDINYATSE: CCR5 (1-18) variant Y15A,"percentage compared to wild-type CCR5, 89.6",[1],1%
same,"percentage compared to wild-type CCR5, ADA",[1],3%
same,"percentage compared to wild-type CCR5, DH123",[1],0%
same,"percentage compared to wild-type CCR5, JF-RL",[1],3%
same,"percentage compared to wild-type CCR5, YU2",[1],30%
MDYQVSSPIYDINAYTSE: CCR5 (1-18) variant Y14A,"percentage compared to wild-type CCR5, 89.6",[1],6%
same,"percentage compared to wild-type CCR5, ADA",[1],47%
same,"percentage compared to wild-type CCR5, DH123",[1],0%
same,"percentage compared to wild-type CCR5, JF-RL",[1],25%
same,"percentage compared to wild-type CCR5, YU2",[1],12%
MDYQVSSPIADINYYTSE: CCR5 (1-18) variant Y10A,"percentage compared to wild-type CCR5, 89.6",[1],10%
same,"percentage compared to wild-type CCR5, ADA",[1],50%
same,"percentage compared to wild-type CCR5, DH123",[1],3%
same,"percentage compared to wild-type CCR5, JF-RL",[1],26%
same,"percentage compared to wild-type CCR5, YU2",[1],2%
MDYAVSSPIYDINYYTSE: CCR5 (1-18) variant Q4A,"percentage compared to wild-type CCR5, 89.6",[1],67%
same,"percentage compared to wild-type CCR5, ADA",[1],132%
same,"percentage compared to wild-type CCR5, DH123",[1],105%
same,"percentage compared to wild-type CCR5, JF-RL",[1],111%
same,"percentage compared to wild-type CCR5, YU2",[1],85%
MDYQVSSPIYDINYYTSA: CCR5 (1-18) variant E18A,"percentage compared to wild-type CCR5, 89.6",[1],3%
same,"percentage compared to wild-type CCR5, ADA",[1],12%
same,"percentage compared to wild-type CCR5, DH123",[1],10%
same,"percentage compared to wild-type CCR5, JF-RL",[1],12%
same,"percentage compared to wild-type CCR5, YU2",[1],45%
MDYQVSSPIYAINYYTSE: CCR5 (1-18) variant D11A,"percentage compared to wild-type CCR5, 89.6",[1],6%
same,"percentage compared to wild-type CCR5, ADA",[1],27%
same,"percentage compared to wild-type CCR5, DH123",[1],3%
same,"percentage compared to wild-type CCR5, JF-RL",[1],22%
same,"percentage compared to wild-type CCR5, YU2",[1],2%
"Y3A: human CCR5 chemokine receptor with tyrosine 3 substituted by alanine, studied by others (cited 79% value)","percentage compared to wild-type CCR5, ADA",[1],79%
same,"percentage compared to wild-type CCR5, DH123",[1],42%
same,"percentage compared to wild-type CCR5, JF-RL",[1],82%
same,affinity relative to a non-mutated CCR5 chemokine receptor,"[1]; mutated CCR5, data extracted from the work of others",79%
same,"percentage of binding of mutant polypeptide compared to wild-type polypeptide, gp120","HIV-1LAI envelope gp120; CCR5 alanine mutant peptide, radiolabeled HIV-1LAI gp120",51.4%
same,ability to bind HIV-1LAI gp120 envelope protein in comparison to an equivalent wild-type peptide,HIV-1LAI envelope gp120; CCR5 mutant polypeptide,51.4%
ASSIVYKKEGEQVEFSFPLAF,COUNTS of radiolabeled gp120 retained,HIV-1LAI envelope gp120; [2],25146 counts
QLLVFGLTA,COUNTS of radiolabeled gp120 retained,HIV-1LAI envelope gp120; [3],822 counts
EEHQAFLQFSKVFLPCMY [STRL33 segment 21-38],radioactive counts recorded in twenty minutes,HIV-1LAI envelope gp120; [4],2316.5 counts
same,radioactive counts recorded in twenty minutes,HIV-1LAI envelope gp120; [5],1819.5 counts
GEQVEFAFPLAFTVE,COUNTS of radiolabeled gp120 retained,"HIV-1LAI envelope gp120; Panel G, alanine replacements and serial truncations (Z) of CD4 polypeptides, empty control 580",21681 counts and 20072 counts
KEGEQVEFSFPL,COUNTS of radiolabeled gp120 retained,HIV-1LAI envelope gp120; [6],710 counts
FGLTANSDTHLLQGQSLT,COUNTS of radiolabeled gp120 retained,HIV-1LAI envelope gp120; [7],591 counts
VEFKIDIVV,COUNTS of radiolabeled gp120 retained,HIV-1LAI envelope gp120; [6],548 counts
ASSIVYKKEGEQVEF,COUNTS of radiolabeled gp120 retained,HIV-1LAI envelope gp120; [8],589 counts
YVGVWIPALLLTIPDFIF,radioactive counts recorded in twenty minutes,HIV-1LAI envelope gp120; [9],124 counts
same,radioactive counts recorded in twenty minutes,HIV-1LAI envelope gp120; [10],536 counts
FSFPLAFTVEKLTGS,COUNTS of radiolabeled gp120 retained,HIV-1LAI envelope gp120; [8],672 counts
EFSFPLAFT,COUNTS of radiolabeled gp120 retained,HIV-1LAI envelope gp120; [6],658 counts
KVEFKIDIVVLAFQKASSIVY,COUNTS of radiolabeled gp120 retained,HIV-1LAI envelope gp120; [2],635 counts
QRPRKLLAEKVVYVGVWI,radioactive counts recorded in twenty minutes,HIV-1LAI envelope gp120; [9],127 counts
same,radioactive counts recorded in twenty minutes,HIV-1LAI envelope gp120; [10],539 counts
EEVQLLVFALTANSD,COUNTS of radiolabeled gp120 retained,HIV-1LAI envelope gp120; [11],19348 counts and 18254 counts
QKHRSLKIIFLVMAVFLL [STRL33 segment 225-242],radioactive counts recorded in twenty minutes,HIV-1LAI envelope gp120; [4],810.5 counts
same,radioactive counts recorded in twenty minutes,HIV-1LAI envelope gp120; [5],814.5 counts
SDTHLLQGQSLTLTLESP,COUNTS of radiolabeled gp120 retained,HIV-1LAI envelope gp120; [7],1260 counts
THLLQAQSLTLTLES,COUNTS of radiolabeled gp120 retained,HIV-1LAI envelope gp120; [11],8471 counts and 6393 counts
NDSSQEEHQAFLQFS,"Binding Results For Window Length (counts bound-background), 9","HIV-1LAI envelope gp120; STRL33 amino terminus, 9-mer starting at the first residue of the printed sequence, background subtracted",180 counts
same,"Binding Results For Window Length (counts bound-background), 12","HIV-1LAI envelope gp120; STRL33 amino terminus, 12-mer starting at the first residue of the printed sequence, background subtracted",497 counts
same,"Binding Results For Window Length (counts bound-background), 15","HIV-1LAI envelope gp120; STRL33 amino terminus, 15-mer starting at the first residue of the printed sequence, background subtracted",6160 counts
PLIIKNLKIEDS,COUNTS of radiolabeled gp120 retained,HIV-1LAI envelope gp120; [3],565 counts
EFKIDIVVLAFQKAS,COUNTS of radiolabeled gp120 retained,HIV-1LAI envelope gp120; [8],1188 counts
QVEFSFPLAFTVEKLTGSGEL,COUNTS of radiolabeled gp120 retained,HIV-1LAI envelope gp120; [2],741 counts
MAVFLLTQMPFNLMKFIR [STRL33 segment 237-254],radioactive counts recorded in twenty minutes,HIV-1LAI envelope gp120; [4],2263.5 counts
same,radioactive counts recorded in twenty minutes,HIV-1LAI envelope gp120; [5],2842.5 counts
